Source: US20250345436A1 (Hyloris Developments SA, priority 2023, published 2025)

Columns and labels:
physchem = type: physicochemical
Excerpt: Atomoxetine HCl (API, active pharmaceutical ingredient) has good aqueous solubility. […] Human saliva has a pH normal range of 6.2-7.6 with 6.7 being the average pH. […] In the oral cavity, the pH is maintained near neutrality (6.7-7.3) by the saliva.
It is also evident that the solubilized form of atomoxetine is going to have a direct impact on taste buds thereby causing immediate bitterness upon drinking the oral solution.

[1] = cited from earlier work

Compound | solubility (physchem; aqueous buffer, Absolute Solubility) [mg/mL] | solubility (physchem; pH 4.5, aqueous buffer, Absolute Solubility) [mg/mL] | solubility (physchem; pH 6.8, aqueous buffer, Absolute Solubility) [mg/mL] | solubility (physchem; pH 6.8, aqueous buffer, solubility) [mg/mL] | solubility (physchem; pH 7.4, aqueous buffer, Absolute Solubility) [mg/mL] | solubility (physchem; simulated gastric fluid, Absolute Solubility) [mg/mL] | solubility (physchem; water, Absolute Solubility) [mg/mL] | size of self-assembled nanosized aggregates ([1]; in water above CMC) | critical micellar concentration (CMC) ([1]; in water) [wt %]
CNCC[C@@H](Oc1ccccc1C)c1ccccc1.Cl [Atomoxetine HCl, (-)-N-Methyl-3-phenyl-3-(o-tolyloxy)-propylamine hydrochloride] | 12.2 | 33.9 | 3.53 | 2.7 to 3.5 | 2.75 | 13.1 | 24.1 | – | –
D-α-Tocopherol Polyethylene Glycol Succinate [Vitamin E TPGS] | – | – | – | – | – | – | – | about 13 nm | 0.02
